# Measurements as given in patent USRE47589E1, “Phosphoramidate compounds and methods of use” (NuCana plc, priority 2003, dated 2019).
# Where two headings read alike, the source gives them in different places.
# Experiments:
# Type in all cases: cell-based
# [1] = system: human breast cancer cell line (MDA MB 231); test: MTT cytotoxicity assay, breast cancer cell line; settings: for EC50: Homo sapiens, MDA-MB-231, read-out: EC50/μM Breast MDA MB231
# Method: (§1) The compounds include those whose preparations are described above and compounds made by preparative methods corresponding to the methods described above.
# (§2) Compounds were diluted over a range of concentrations and added to cells over 1 to 3 days. The cytotoxity was determined using a MTT assay at the end of each experiment.
# [2] = system: human colon cancer cell line (HT115); test: MTT cytotoxicity assay, colon cancer cell line
# Method: as §1, §2
# [3] = system: human prostate cancer cell line (PC-3); test: MTT cytotoxicity assay, prostate cancer cell line; settings: for EC50: read-out: EC50/μM Prostate PC-3
# Method: as §1, §2
# [4] = Homo sapiens, HT115, read-out: EC50/μM Colon HT115, MTT assay, compounds added to cells over 1 to 3 days
# [5] = MTT assay, compounds added to cells over 1 to 3 days
# [6] = MTT assay, compounds added to cells over 1 to 3 days, read-out: EC50/μM Colon HT115
Compound,EC50 [1] [µM],"EC50 [2, 4] [µM]",EC50 ([3]; Homo sapiens) [µM],further results
"COC(=O)C(C)(C)NP(=O)(OC[C@H]1O[C@@H](n2cc(/C=C/Br)c(=O)[nH]c2=O)CC1O)Oc1ccc(Cl)cc1 (stereo partly drawn) [Example 42, (E)-5-(2-bromovinyl)-2′-deoxyuridine-5′-[4-chlorophenyl-(methoxy-α,α-dimethylglycinyl)]-phosphate]",8.7,183,442,
"CC(C)(NP(=O)(OCC1OC(n2cc(/C=C/Br)c(=O)[nH]c2=O)CC1O)Oc1ccc(C(F)(F)F)cc1)C(=O)OCc1ccccc1 (stereo not drawn) [Example 48, (E)-5-(2-bromovinyl)-2′-deoxyuridine-5′-[para-(trifluoromethyl)phenyl-(benzoxy-α,α-dimethylglycinyl)]-phosphate]",1.3,7,0.61,"fold more active than (7), breast cancer ([1]; ratio versus methyl ester (7)): 60 fold; times more potent than (7), colon cancer cell line HT115 ([2]; ratio of 50% growth inhibition concentrations versus methyl ester (7)): 35 fold; times more potent than (7), prostate cancer cell line PC-3 ([3]; ratio versus methyl ester (7)): 254 fold"
C[C@H](NP(=O)(OC[C@H]1O[C@@H](n2cc(/C=C/Br)c(=O)[nH]c2=O)CC1O)Oc1ccc(F)cc1)C(=O)OCc1ccccc1 (stereo partly shown) [Example 7],17,3.5,16,
CC(C)(NP(=O)(OCC1OC(n2cc(C=CBr)c(=O)[nH]c2=O)CC1O)Oc1ccc(F)cc1)C(=O)OCc1ccccc1 (stereo not shown) [Example 84],,,,"EC50 [3, 5]: 4.5 µM"
"COC(=O)C1(NP(=O)(OC[C@H]2O[C@@H](n3cc(/C=C/Br)c(=O)[nH]c3=O)CC2O)Oc2ccc([N+](=O)[O-])cc2)CCCC1 (stereo partly drawn) [Example 19, (E)-5-(2-Bromovinyl)-2′-deoxyuridine-5′-[para-nitrophenyl-(methoxy-α,α-cycloleucinyl)]-phosphate]",56,38.2,88,
"C[C@H](NP(=O)(OC[C@H]1O[C@@H](n2cc(/C=C/Br)c(=O)[nH]c2=O)CC1O)Oc1ccc(C(F)(F)F)cc1)C(=O)OCc1ccccc1 (stereo partly drawn) [Example 4, (E)-5-(2-Bromovinyl)-2′-deoxyuridine-5′-[para-trifluorophenyl-(benzoxy-L-alaninyl)]-phosphate]",31,7.4,9.3,
"COC(=O)[C@H](C)NP(=O)(OC[C@H]1O[C@@H](n2cc(/C=C/Br)c(=O)[nH]c2=O)CC1O)Oc1ccc(Cl)cc1 (stereo partly drawn) [Example 13, (E)-5-(2-bromovinyl)-2′-deoxyuridine-5′-[4-chlorophenyl-(methoxy-L-alaninyl)]-phosphate]",61,70.2,13,
CC(C)C(NP(=O)(OCC1OC(n2cc(C=CBr)c(=O)[nH]c2=O)CC1O)Oc1ccccc1)C(=O)OCc1ccccc1 (stereo not shown) [Example 85],,,,"EC50 [3, 5]: 31.2 µM"
"CCOC(=O)C1(NP(=O)(OC[C@H]2O[C@@H](n3cc(/C=C/Br)c(=O)[nH]c3=O)CC2O)Oc2ccc([N+](=O)[O-])cc2)CCCC1 (stereo partly drawn) [Example 20, (E)-5-(2-Bromovinyl)-2′-deoxyuridine-5′-[para-nitrophenyl-(ethoxy-α,α-cycloleucinyl)]-phosphate]",13,57.3,15,
"COC(=O)C1(NP(=O)(OC[C@H]2O[C@@H](n3cc(/C=C/Br)c(=O)[nH]c3=O)CC2O)Oc2ccc(C(F)(F)F)cc2)CCCC1 (stereo partly drawn) [Example 28, (E)-5-(2-Bromovinyl)-2′-deoxyuridine-5′-[para-trifluorophenyl-(methoxy-α,α-cycloleucinyl)]-phosphate]",28.8,21.2,,
"C[C@H](NP(=O)(OC[C@H]1O[C@@H](n2cc(/C=C/Br)c(=O)[nH]c2=O)CC1O)Oc1ccc([N+](=O)[O-])cc1)C(=O)OCc1ccccc1 (stereo partly drawn) [Example 8, (E)-5-(2-Bromovinyl)-2′-deoxyuridine-5′-[para-nitrophenyl-(benzoxy-L-alaninyl)]-phosphate]",28,9,,
"COC(=O)[C@H](C)NP(=O)(OC[C@H]1O[C@@H](n2cc(/C=C/Br)c(=O)[nH]c2=O)CC1O)Oc1ccccc1 (stereo partly drawn) [Example 1, (E)-5-(2-Bromovinyl)-2′-deoxyuridine-5′-[phenyl-(methoxy-L-alaninyl)]-phosphate, reference compound]",79,244,155,"EC50 ([2]; read-out: EC50/μM Colon HT115, MTT assay, compounds added to cells over 1 to 3 days): 244 µM"
"CCOC(=O)C1(NP(=O)(OC[C@H]2O[C@@H](n3cc(/C=C/Br)c(=O)[nH]c3=O)CC2O)Oc2ccc(F)cc2)CCCC1 (stereo partly drawn) [Example 23, (E)-5-(2-Bromovinyl)-2′-deoxyuridine-5′-[para-fluorophenyl-(ethoxy-α,α-cycloleucinyl)]-phosphate]",9.9,18.1,2.7,
"COC(=O)C1(NP(=O)(OC[C@H]2O[C@@H](n3cc(/C=C/Br)c(=O)[nH]c3=O)CC2O)Oc2ccc(Cl)cc2)CCCC1 (stereo partly drawn) [Example 32, (E)-5-(2-Bromovinyl)-2′-deoxyuridine-5′-[para-chlorophenyl-(methoxy-α,α-cycloleucinyl)]-phosphate]",2.6,99.3,52.2,
"CCOC(=O)[C@H](C)NP(=O)(OC[C@H]1O[C@@H](n2cc(/C=C/Br)c(=O)[nH]c2=O)CC1O)Oc1ccc(F)cc1 (stereo partly drawn) [Example 6, (E)-5-(2-Bromovinyl)-2′-deoxyuridine-5′-[para-fluorophenyl-(ethoxy-L-alaninyl)]-phosphate]",46,11,42,
O=C(OCc1ccccc1)C(Cc1ccccc1)NP(=O)(OCC1OC(n2cc(C=CBr)c(=O)[nH]c2=O)CC1O)Oc1ccccc1 (stereo not shown) [Example 54],,,,"EC50 [2, 6]: 5.1 µM"
CCOC(=O)C(C)(C)NP(=O)(OCC1OC(n2cc(C=CBr)c(=O)[nH]c2=O)CC1O)Oc1ccc(C(F)(F)F)cc1 (stereo not shown) [Example 59],,,,"EC50 [2, 6]: 24.7 µM"
CC(C)[C@H](NP(=O)(OC[C@H]1O[C@@H](n2cc(/C=C/Br)c(=O)[nH]c2=O)C[C@@H]1O)Oc1ccc(C(F)(F)F)cc1)C(=O)OCc1ccccc1 (stereo partly shown) [Example 78],,,,"EC50 [3, 5]: 1.6 µM"
CCOC(=O)[C@H](C)NP(=O)(OC[C@H]1O[C@@H](n2cc(/C=C/Br)c(=O)[nH]c2=O)CC1O)Oc1ccc(C(F)(F)F)cc1 (stereo partly shown) [Example 25],33.8,4.6,,
CCOC(=O)C(NP(=O)(OCC1OC(n2cc(C=CBr)c(=O)[nH]c2=O)CC1O)Oc1ccccc1)C(C)CC (stereo not shown) [Example 73],,,,"EC50 [3, 5]: 30.6 µM"
O=C(OCc1ccccc1)C(NP(=O)(OCC1OC(n2cc(C=CBr)c(=O)[nH]c2=O)CC1O)Oc1ccc(C(F)(F)F)cc1)c1ccccc1 (stereo not shown) [Example 91],,,,"EC50 [3, 5]: 0.7 µM"
"propenate-2′-deoxyuridine [Example 67, reference compound]",,,,"EC50 [2, 6]: 93.7 µM"
CC(C)C(NP(=O)(OCC1OC(n2cc(C=CBr)c(=O)[nH]c2=O)CC1O)Oc1ccc(Cl)cc1)C(=O)OCc1ccccc1 (stereo not shown) [Example 86],,,,"EC50 [3, 5]: 0.9 µM"
O=C(CNP(=O)(OCC1OC(n2cc(C=CBr)c(=O)[nH]c2=O)CC1O)Oc1ccc(Cl)cc1)OCc1ccccc1 (stereo not shown) [Example 77],,,,"EC50 [3, 5]: 150 µM"
"O=C(OCc1ccccc1)C1(NP(=O)(OC[C@H]2O[C@@H](n3cc(/C=C/Br)c(=O)[nH]c3=O)CC2O)Oc2ccc(C(F)(F)F)cc2)CCCC1 (stereo partly drawn) [Example 30, (E)-5-(2-Bromovinyl)-2′-deoxyuridine-5′-[para-trifluorophenyl-(benzoxy-α,α-cycloleucinyl)]-phosphate]",6.9,6.4,,
